# Laboratory results taken from patent US20250230193A1, “CYCLIC COMPOUND HAVING SELECTIVE KRAS INHIBITORY EFFECT ON HRAS AND NRAS” (CHUGAI SEIYAKU KABUSHIKI KAISHA, priority 2022, published 2025).
# Where a SMILES comes first, the peptide text is derived from it. Bridges are numbered along the chain shown (N, C = ends). [ ]: non-standard residue; d: D form. The star is where a group is joined. hPhe(3-Cl-4-CF3) = N[C@@H](CCc1ccc(C(F)(F)F)c(Cl)c1)C(=O)O; NPrPhe(4-CF3) = CCCN[C@@H](Cc1ccc(C(F)(F)F)cc1)C(=O)O; Pro(4-spirocPr) = O=C(O)[C@@H]1CC2(CC2)CN1; NMeGly(cPent) = CN[C@H](C(=O)O)C1CCCC1; Gly(cPent) = N[C@H](C(=O)O)C1CCCC1; NMeD = CN[C@@H](CC(=O)O)C(=O)O; NMeL = CN[C@@H](CC(C)C)C(=O)O; Morpholide = C1CN(*)CCO1; Ac5c = NC1(C(=O)O)CCCC1; Aze = O=C(O)[C@@H]1CCN1; Ac3c = NC1(C(=O)O)CC1; Sar = CNCC(=O)O
# Columns and labels:
# [1] = molecular target: GDP-bound NRAS wild-type protein (Homo sapiens, UniProt P01111); assay: Binding to NRAS by surface plasmon resonance (SPR), Single Cycle Kinetics
# [2] = molecular target: GDP-bound HRAS wild-type protein (Homo sapiens, UniProt P01112); assay: Binding to HRAS by surface plasmon resonance (SPR), Single Cycle Kinetics
# [3] = SPR, GDP-bound NRAS wild-type vs GDP-bound KRAS wild-type
# [4] = SPR, GDP-bound HRAS wild-type vs GDP-bound KRAS wild-type
# [5] = SPR, GDP-bound wild-type proteins
# Chain of GDP-bound HRAS wild-type protein (P01112 whole entry): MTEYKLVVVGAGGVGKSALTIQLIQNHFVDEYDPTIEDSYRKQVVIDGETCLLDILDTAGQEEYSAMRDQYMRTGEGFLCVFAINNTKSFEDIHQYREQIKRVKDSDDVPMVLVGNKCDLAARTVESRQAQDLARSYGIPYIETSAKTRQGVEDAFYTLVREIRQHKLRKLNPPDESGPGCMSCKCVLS
# Chain of GDP-bound NRAS wild-type protein (P01111 whole entry): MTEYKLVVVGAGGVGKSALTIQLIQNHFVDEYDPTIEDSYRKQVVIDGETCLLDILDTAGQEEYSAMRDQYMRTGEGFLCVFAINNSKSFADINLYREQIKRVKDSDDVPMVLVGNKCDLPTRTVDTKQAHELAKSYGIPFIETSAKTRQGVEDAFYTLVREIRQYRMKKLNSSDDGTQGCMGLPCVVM
compound,measurement,setting,value
CCCO[C@H](C)[C@@H]1NC(=O)[C@H](CC(C)C)N(C)C(=O)C[C@@H](C(=O)N(C)C)N(C)C(=O)[C@H](C2CCCC2)N(C)C(=O)C2(CC(C)(C)C2)NC(=O)[C@@H]2C[C@@H](OCC)CN2C(=O)[C@H](CCc2cc(F)c(C(F)(F)F)c(F)c2)NC(=O)CN(C)C(=O)[C@H](Cc2ccc(C(F)(F)F)cc2)N2CC/C=C\C[C@@H](C2=O)N(C)C(=O)CN(C)C1=O [PP1921],NRAS/KRAS (ratio of KD value for NRAS to KD value for KRAS),"[1]; KD ratio, GDP-bound NRAS wild-type vs GDP-bound KRAS wild-type, SPR",A (a compound having 10 or more and less than 20 is denoted as A)
same,HRAS/KRAS (ratio of KD value for HRAS to KD value for KRAS),"[2]; KD ratio, GDP-bound HRAS wild-type vs GDP-bound KRAS wild-type, SPR",A (a compound having 10 or more and less than 20 is denoted as A)
CCCN1C(=O)CN(C)C(=O)[C@@H]2CCN2C(=O)[C@H]([C@@H](C)CC)NC(=O)[C@H](CC(C)C)N(C)C(=O)C[C@@H](C(=O)N2CCOCC2)NC(=O)[C@H](C2CCCC2)N(C)C(=O)C2(CCCC2)NC(=O)[C@@H]2CCCN2C(=O)[C@H](CCc2ccc(C(F)(F)F)c(Cl)c2)NC(=O)CN(C)C(=O)[C@@H]1Cc1ccc(C(F)(F)F)cc1 [PP0337] ([NMeL]I[Aze][Sar][NPrPhe(4-CF3)][Sar][hPhe(3-Cl-4-CF3)]P[Ac5c][NMeGly(cPent)]D-Morpholide; lactam N-11),NRAS/KRAS (ratio of KD for GDP-bound NRAS wild-type to KD for KRAS),[1]; SPR,B (a compound having 3 or more and less than 10 is denoted as B)
same,HRAS/KRAS (ratio of KD for GDP-bound HRAS wild-type to KD for KRAS),[2]; SPR,B (a compound having 3 or more and less than 10 is denoted as B)
CCOC[C@H]1C(=O)N[C@@H]([C@@H](C)CC)C(=O)N(C)CC(=O)N(C)[C@H]2C/C=C\CCN(C2=O)[C@@H](CC2CCC(F)(F)CC2)C(=O)N(C)CC(=O)N[C@@H](CCc2ccc(C(F)(F)F)c(OC)c2)C(=O)N2C[C@@H](C)C[C@H]2C(=O)NC2(CC(C)(C)C2)C(=O)N(C)[C@@H](C(CC)CC)C(=O)N(C)[C@H](C(=O)N(C)C)CC(=O)N1C [PP2458],NRAS/KRAS (ratio of KD value with respect to NRAS to KD value with respect to KRAS),[1]; [3],A (a compound having 10 or more and less than 20 is denoted as A)
same,HRAS/KRAS (ratio of KD value with respect to HRAS to KD value with respect to KRAS),[2]; [4],A (a compound having 10 or more and less than 20 is denoted as A)
CCO[C@@H]1C[C@H]2C(=O)NC3(CC(C)(C)C3)C(=O)N(C)[C@@H](C(CC)CC)C(=O)N(C)[C@H](C(=O)N(C)C)CC(=O)N(C)[C@H]3CC/C=C/c4ccc(cc4)C[C@@H](C(=O)N(C)CC(=O)N[C@@H](CCc4ccc(Cl)c(Cl)c4)C(=O)N2C1)N1CC/C=C\C[C@@H](C1=O)N(C)C(=O)CN(C)C(=O)[C@H]([C@@H](C)CC)NC3=O [PP2589],NRAS/KRAS (ratio of KD value with respect to GDP-bound NRAS wild-type protein to KD value with respect to KRAS),[1]; class symbols,AA (a compound having 20 or more is denoted as AA)
same,HRAS/KRAS (ratio of KD value with respect to GDP-bound HRAS wild-type protein to KD value with respect to KRAS),[2]; class symbols,A (a compound having 10 or more and less than 20 is denoted as A)
"CCC[C@H]1C(=O)N[C@@H]([C@@H](C)CC)C(=O)N(C2CC2)CC(=O)N(C)[C@H]2C/C=C\CCN(C2=O)[C@@H](Cc2ccc(C)cc2)C(=O)N(C)CC(=O)N[C@@H](CCc2ccc(C(F)(F)F)c(OC)c2)C(=O)N2C[C@H](OCC)C[C@H]2C(=O)N(C)C2(CCC2)C(=O)N(C)[C@@H](C2CCCC2)C(=O)N(C)[C@H](C(=O)N2CCCC2)CC(=O)N1C [PP3098, (2S,8S,12R,14S,20S,23S,27S,30S,36S,38Z)-20-cyclopentyl-32-cyclopropyl-12-ethoxy-8-[2-[3-methoxy-4-(trifluoromethyl)phenyl]ethyl]-4,16,19,22,26,35-hexamethyl-30-[(1S)-1-methylpropyl]-27-propyl-2-(p-tolylmethyl)-23-(pyrrolidine-1-carbonyl)spiro[1,4,7,10,16,19,22,26,29,32,35-undecazatricyclo[34.5.1.0^10,14]dotetracont-38-ene-17,1′-cyclobutane]-3,6,9,15,18,21,25,28,31,34,42-undecone]",NRAS/KRAS (ratio of KD value with respect to GDP-bound NRAS wild-type protein to KD value with respect to KRAS),[1]; [5],A (a compound having 10 or more and less than 20 is denoted as A)
same,HRAS/KRAS (ratio of KD value with respect to GDP-bound HRAS wild-type protein to KD value with respect to KRAS),[2]; [5],A (a compound having 10 or more and less than 20 is denoted as A)
CCC[C@H]1C(=O)N[C@@H]([C@@H](C)CC)C(=O)N(C)CC(=O)N(C)[C@H]2C/C=C\CCN(C2=O)[C@@H](Cc2ccc(C(F)(F)F)cc2)C(=O)N(C)CC(=O)N[C@@H](CCc2ccc(Cl)c(C(F)(F)F)c2)C(=O)N2C[C@H](OCC)C[C@H]2C(=O)NC2(CC(C)(C)C2)C(=O)N(C)[C@@H](C(CC)CC)C(=O)N(C)[C@H](C(=O)N(C)C)CC(=O)N1C [PP2785],NRAS/KRAS (ratio of KD value with respect to GDP-bound NRAS wild-type protein to KD value with respect to KRAS),[1]; class symbols,AA (a compound having 20 or more is denoted as AA)
same,HRAS/KRAS (ratio of KD value with respect to GDP-bound HRAS wild-type protein to KD value with respect to KRAS),[2]; class symbols,A (a compound having 10 or more and less than 20 is denoted as A)
CCCN1C(=O)CN(C)C(=O)CN(C)C(=O)[C@H]([C@@H](C)CC)NC(=O)[C@H](CC(C)C)N(C)C(=O)C[C@@H](C(=O)N2CCOCC2)N(C)C(=O)[C@H](C2CCCC2)N(C)C(=O)C2(CCCC2)NC(=O)[C@@H]2CC3(CC3)CN2C(=O)[C@H](CCc2ccc(C(F)(F)F)c(Cl)c2)NC(=O)CN(C)C(=O)[C@@H]1Cc1ccc(C(F)(F)F)cc1 [PP0261] ([NMeL]I[Sar][Sar][NPrPhe(4-CF3)][Sar][hPhe(3-Cl-4-CF3)][Pro(4-spirocPr)][Ac5c][NMeGly(cPent)][NMeD]-Morpholide; lactam N-11),NRAS/KRAS (ratio of KD for GDP-bound NRAS wild-type to KD for KRAS),[1]; SPR,B (a compound having 3 or more and less than 10 is denoted as B)
same,HRAS/KRAS (ratio of KD for GDP-bound HRAS wild-type to KD for KRAS),[2]; SPR,C (A compound having a KD ratio of 0.1 or more and less than 3 is denoted as C)
CCO[C@@H]1C[C@H]2C(=O)NC3(CC(C)(C)C3)C(=O)N(C)[C@@H](C(CC)CC)C(=O)N(C)[C@H](C(=O)N(C)C)CC(=O)N(C)[C@@H](C)C(=O)N[C@@H]([C@@H](C)CC)C(=O)N(C)CC(=O)N(C)[C@H]3C/C=C\CCN(C3=O)[C@@H](Cc3ccc(C)cc3)C(=O)N(C)CC(=O)N[C@@H](CCc3ccc(C(F)(F)F)c(Cl)c3)C(=O)N2C1 [PP2150],NRAS/KRAS (ratio of KD value with respect to NRAS to KD value with respect to KRAS),[1]; [3],AA (a compound having 20 or more is denoted as AA)
same,HRAS/KRAS (ratio of KD value with respect to HRAS to KD value with respect to KRAS),[2]; [4],A (a compound having 10 or more and less than 20 is denoted as A)
CCCN1C(=O)CN(C)C(=O)CN(C)C(=O)[C@H]([C@@H](C)CC)NC(=O)[C@H](CC(C)C)N(C)C(=O)C[C@@H](C(=O)N2CCOCC2)N(C)C(=O)[C@H](C2CCCC2)N(C)C(=O)C2(CC2)NC(=O)[C@@H]2CCCN2C(=O)[C@H](CCc2ccc(C(F)(F)F)c(Cl)c2)NC(=O)CN(C)C(=O)[C@@H]1Cc1ccc(C(F)(F)F)cc1 [PP0229] ([NMeL]I[Sar][Sar][NPrPhe(4-CF3)][Sar][hPhe(3-Cl-4-CF3)]P[Ac3c][NMeGly(cPent)][NMeD]-Morpholide; lactam N-11),NRAS/KRAS (ratio of KD for GDP-bound NRAS wild-type to KD for KRAS),[1]; SPR,B (a compound having 3 or more and less than 10 is denoted as B)
same,HRAS/KRAS (ratio of KD for GDP-bound HRAS wild-type to KD for KRAS),[2]; SPR,B (a compound having 3 or more and less than 10 is denoted as B)
CC[C@H](C)[C@@H]1NC(=O)[C@H](CC(C)C)N(C)C(=O)C[C@@H](C(=O)N2CCOCC2)N(C)C(=O)[C@H](C2CCCC2)N(C)C(=O)C2(CCCC2)NC(=O)[C@@H]2CCCN2C(=O)[C@H](CCc2cc(F)c(C(F)(F)F)c(F)c2)NC(=O)CN(C)C(=O)[C@H](Cc2ccc(C(F)(F)F)cc2)N2CCCC[C@@H](C2=O)N(C)C(=O)[C@H](CC)N(C)C1=O [PP0551],NRAS/KRAS (ratio of KD value with respect to GDP-bound NRAS wild-type protein to KD value with respect to KRAS),[1]; SPR,C (A compound having a KD ratio of 0.1 or more and less than 3 is denoted as C)
same,HRAS/KRAS (ratio of KD value with respect to GDP-bound HRAS wild-type protein to KD value with respect to KRAS),[2]; SPR,B (a compound having 3 or more and less than 10 is denoted as B)
CCCN1C(=O)CN(C)C(=O)[C@@H]2CCN2C(=O)[C@H](C2CCCC2)NC(=O)[C@H](CC(C)C)N(C)C(=O)C[C@@H](C(=O)N2CCOCC2)N(C)C(=O)[C@H](C2CCCC2)N(C)C(=O)C2(CCCC2)NC(=O)[C@@H]2CCCN2C(=O)[C@H](CCc2ccc(C(F)(F)F)c(Cl)c2)NC(=O)CN(C)C(=O)[C@@H]1Cc1ccc(C(F)(F)F)cc1 [PP0306] ([NMeL][Gly(cPent)][Aze][Sar][NPrPhe(4-CF3)][Sar][hPhe(3-Cl-4-CF3)]P[Ac5c][NMeGly(cPent)][NMeD]-Morpholide; lactam N-11),NRAS/KRAS (ratio of KD for GDP-bound NRAS wild-type to KD for KRAS),[1]; SPR,B (a compound having 3 or more and less than 10 is denoted as B)
same,HRAS/KRAS (ratio of KD for GDP-bound HRAS wild-type to KD for KRAS),[2]; SPR,B (a compound having 3 or more and less than 10 is denoted as B)
CCC[C@H]1C(=O)N[C@@H](C2CCCCC2)C(=O)N(C)CC(=O)N(C)[C@H]2C/C=C\CCN(C2=O)[C@@H](Cc2ccc(C(F)(F)F)cc2)C(=O)N(C)CC(=O)N[C@@H](CCc2ccc(C(F)(F)F)c(Cl)c2)C(=O)N2C[C@H](OCC)C[C@H]2C(=O)NC2(CC(C)(C)C2)C(=O)N(C)[C@@H]([C@@H](C)CC)C(=O)N(C)[C@H](C(=O)N(C)C)CC(=O)N1C [PP3015],NRAS/KRAS (ratio of KD value with respect to GDP-bound NRAS wild-type protein to KD value with respect to KRAS),[1]; [5],AA (a compound having 20 or more is denoted as AA)
same,HRAS/KRAS (ratio of KD value with respect to GDP-bound HRAS wild-type protein to KD value with respect to KRAS),[2]; [5],A (a compound having 10 or more and less than 20 is denoted as A)
CCO[C@@H]1C[C@H]2C(=O)NC3(CCC3)C(=O)N(C)[C@@H](C3CCCC3)C(=O)N(CCC3CCC3)[C@H](C(=O)N3CCOCC3)CC(=O)N(C)[C@@H](CC(C)C)C(=O)N[C@@H]([C@@H](C)CC)C(=O)N(C)CC(=O)N(C)[C@H]3CCCCN(C3=O)[C@@H](Cc3ccc(C(F)(F)F)cc3)C(=O)N(C)CC(=O)N[C@@H](CCc3cc(F)c(C(F)(F)F)c(F)c3)C(=O)N2C1 [PP0650],NRAS/KRAS (ratio of KD value with respect to GDP-bound NRAS wild-type protein to KD value with respect to KRAS),[1]; SPR,C (A compound having a KD ratio of 0.1 or more and less than 3 is denoted as C)
same,HRAS/KRAS (ratio of KD value with respect to GDP-bound HRAS wild-type protein to KD value with respect to KRAS),[2]; SPR,B (a compound having 3 or more and less than 10 is denoted as B)
